How the values were obtained:
[1] = tested on: bovine pulmonary endothelial cells (bPAEC); experiment: 3H-thymidine incorporation cell proliferation assay in bPAEC combined with c-Met siRNA; format: cell-based; conditions: serial dilutions of 5-((E)-2-thiophen-2-yl-vinyl)-1H-pyrazole or HGF; with c-Met siRNA knockdown; FIG. 1B-C
Method: Compounds promote proliferation of pulmonary endothelial cells specifically through c-Met. Proliferation of pulmonary endothelial cells is one of the important pulmotrophic activities of HGF. […] First, a c-Met siRNA was used with a lipo-transfecting reagent to knock down the c-Met mRNA level in bPAEC cells, and real time RT-PCR conducted to measure the effect. The c-Met siRNA can knock down ˜90% of c-Met mRNA at a c-Met siRNA concentration as low as 50 nM. Next, the siRNA knockdown condition established from the first step was used to decrease >=90% of c-Met mRNA in bPAEC by using 100 nM of the c-Met siRNA pool, and subsequently ^3H-thymidine incorporation assay was performed in the bPAEC cells.
Shown in FIG. 1B-C, ˜5,000/well bPAEC were plated in 96 well plates. The steps as described above were continued until 24 h after adding the mixture of siRNAs and lipofectamine. Then the medium was changed with the fresh mixture of siRNAs and lipofectamine containing serial dilutions of the compound 5-((E)-2-thiophen-2-yl-vinyl)-1H-pyrazole or HGF, incubated another 24 h, 100 ul of ^3H-thymidine(1uCi/ml) was added and incubation continued overnight. Then, 100 ul/well Trypsin/EDTA was added, and ^3H-thymidine incorporation analysis was conducted using an auto-harvester and Topcount NXT v2.12 instrument.

[2] = tested on: bovine pulmonary endothelial cells (bPAEC); experiment: CytoSelect 24-well cell migration assay of bPAEC; format: cell-based; conditions: 24 h; multiple concentrations; FIG. 2
Method: Another important pulmotrophic activity of HGF is to stimulate migration of pulmonary endothelial cells. Again, bPAEC cells were used to test if test compound, like HGF, can stimulate migration of the cells. The CytoSelect 24-well cell migration assay (Cell Biolabs, Inc.) was used to measure the migration of bPAEC cells according to the kit manual.
CytoSelect 24-well cell migration assay kit (Cell Biolabs, Inc.) was used. Briefly, ˜300,000 cells/chamber were seeded in serum-free medium and put into a larger well containing medium with no-serum (C), serum, HGF, compound at multiple concentrations (see above), respectively, and incubated for 24 h. The medium was then aspirated from the chamber and then carefully and completely, the cells on the inner surface of the membrane were removed with cotton and the membrane washed twice. The migrated cells were stained and quantified by measuring OD at 560 nm. The mean values from bouble wells for each compound are shown.

HGF: hepatocyte growth factor (HGF; also known as scatter factor), acts through its receptor c-Met
proliferation of bPAEC cells (3H-thymidine incorporation) [1]: promote proliferation of bPAEC cells specifically through HGF receptor c-Met
migration of bPAEC cells (OD at 560 nM) [2]: stimulates bPAEC cells migration
